Experimental data reported in ChEMBL document CHEMBL4837239, “Identification of Thieno[3,2-d]pyrimidine Derivatives as Dual Inhibitors of Focal Adhesion Kinase and FMS-like Tyrosine Kinase 3” (J Med Chem, 2021).

How the values were obtained:
BaF3 [1] = assay: Antiproliferative activity against mouse Ba/F3 cells harbouring FLT3 ITD F691I mutant assessed as growth inhibition measured after 72 hrs by CellTiter-Glo assay; assay type: functional; details: Mus musculus, BaF3
BaF3 [2] = assay: Antiproliferative activity against mouse Ba/F3 cells harbouring FLT3 D835Y mutant assessed as growth inhibition measured after 72 hrs by CellTiter-Glo assay; assay type: functional; details: Mus musculus, BaF3
BaF3 [3] = assay: Antiproliferative activity against mouse Ba/F3 cells harbouring FLT3 ITD F691L mutant assessed as growth inhibition measured after 72 hrs by CellTiter-Glo assay; assay type: functional; details: Mus musculus, BaF3
BaF3 [4] = assay: Antiproliferative activity against mouse Ba/F3 cells assessed as growth inhibition measured after 72 hrs by CellTiter-Glo assay; assay type: functional; details: Mus musculus, BaF3
BaF3 [5] = assay: Antiproliferative activity against mouse Ba/F3 cells harbouring FLT3 ITD D835Y mutant assessed as growth inhibition measured after 72 hrs by CellTiter-Glo assay; assay type: functional; details: Mus musculus, BaF3
BaF3 [6] = assay: Antiproliferative activity against mouse Ba/F3 cells harbouring FLT3 ITD mutant assessed as growth inhibition measured after 72 hrs by CellTiter-Glo assay; assay type: functional; details: Mus musculus, BaF3
[7] = Inhibition of FLT3 D835Y (unknown origin); design: species or system Homo sapiens
[8] = Metabolic stability in human liver microsomes assessed as compound remaining at 1 uM measured after 1 hr; assay type: ADME, Microsome; details: read-out: Stabilty
Focal adhesion kinase 1 = Focal adhesion kinase 1 (Homo sapiens, UniProt Q05397); assay: Inhibition of recombinant FAK (unknown origin) by radiometric kinase assay
HCT-116 = assay: Antiproliferative activity against human HCT-116 cells assessed as growth inhibition measured after 72 hrs by CellTiter-Glo assay; assay type: functional
MDA-MB-231 = assay: Antiproliferative activity against human MDA-MB-231 cells assessed as growth inhibition measured after 72 hrs by CellTiter-Glo assay; assay type: functional
[9] = Antiproliferative activity against human A375P cells assessed as growth inhibition measured after 72 hrs by CellTiter-Glo assay; assay type: functional

Sequence of Focal adhesion kinase 1 (Q05397 whole entry): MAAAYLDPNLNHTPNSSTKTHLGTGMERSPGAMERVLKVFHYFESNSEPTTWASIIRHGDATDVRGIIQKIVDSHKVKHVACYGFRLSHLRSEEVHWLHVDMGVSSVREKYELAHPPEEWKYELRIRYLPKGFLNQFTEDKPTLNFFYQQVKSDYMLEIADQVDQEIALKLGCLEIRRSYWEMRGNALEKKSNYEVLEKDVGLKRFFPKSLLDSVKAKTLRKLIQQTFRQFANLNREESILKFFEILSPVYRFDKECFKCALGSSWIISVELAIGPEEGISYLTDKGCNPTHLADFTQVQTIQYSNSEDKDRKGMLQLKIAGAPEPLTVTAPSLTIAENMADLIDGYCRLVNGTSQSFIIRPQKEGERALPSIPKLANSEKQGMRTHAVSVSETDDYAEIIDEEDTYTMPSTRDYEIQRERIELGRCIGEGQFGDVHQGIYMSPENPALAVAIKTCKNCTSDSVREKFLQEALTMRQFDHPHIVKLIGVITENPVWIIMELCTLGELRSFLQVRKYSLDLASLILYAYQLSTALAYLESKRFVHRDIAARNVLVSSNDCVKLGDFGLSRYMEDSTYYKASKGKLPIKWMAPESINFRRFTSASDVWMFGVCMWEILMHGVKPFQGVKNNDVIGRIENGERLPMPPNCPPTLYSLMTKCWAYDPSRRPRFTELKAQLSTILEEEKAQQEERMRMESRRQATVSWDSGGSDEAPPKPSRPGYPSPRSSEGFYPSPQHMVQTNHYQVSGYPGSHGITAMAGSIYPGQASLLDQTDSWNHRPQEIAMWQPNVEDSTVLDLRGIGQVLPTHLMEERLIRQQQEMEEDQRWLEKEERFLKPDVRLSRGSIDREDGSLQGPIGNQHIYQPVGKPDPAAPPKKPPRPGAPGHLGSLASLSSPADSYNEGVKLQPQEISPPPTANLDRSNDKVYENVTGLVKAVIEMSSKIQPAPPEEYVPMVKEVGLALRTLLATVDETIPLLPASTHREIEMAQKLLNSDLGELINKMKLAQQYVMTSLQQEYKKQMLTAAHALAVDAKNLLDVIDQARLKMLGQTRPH

Compound	IC50 (Focal adhesion kinase 1) [nM]	GI50 (HCT-116; Homo sapiens, HCT-116) [nM]	GI50 (MDA-MB-231; Homo sapiens, MDA-MB-231) [nM]	GI50 ([9]; Homo sapiens, A375P) [nM]	also measured
CC(C)(C)c1cc(NC(=O)Nc2ccc(-c3cn4c(n3)sc3cc(OCCN5CCOCC5)ccc34)cc2)no1 [QUIZARTINIB]					GI50 (BaF3 [1]): > 10000 nM; GI50 (BaF3 [2]): 2.2 nM; GI50 (BaF3 [3]): 68.2 nM; GI50 (BaF3 [4]): > 10000 nM; GI50 (BaF3 [5]): 12.9 nM; GI50 (BaF3 [6]): 0.6 nM
CCN1CCN(c2ccc(Nc3ncc4scc(-c5cccc(S(C)(=O)=O)c5)c4n3)cc2)CC1	18	510	520	640	IC50 [7]: < 0.5 nM; remaining at 1 h, 1 µM [8]: 55.5%; GI50 (BaF3 [1]): 245 nM; GI50 (BaF3 [2]): 8.7 nM; GI50 (BaF3 [3]): 170 nM; GI50 (BaF3 [4]): 427 nM; GI50 (BaF3 [5]): 25.2 nM; GI50 (BaF3 [6]): 20.6 nM
CCN1CCN(c2cccc(Nc3ncc4scc(-c5cccc(NS(C)(=O)=O)c5)c4n3)c2)CC1	13	420	1420	900	remaining at 1 h, 1 µM [8]: 100%
CCOC(=O)c1cccc(-c2csc3cnc(Nc4ccc(N5CCN(CC)CC5)cc4)nc23)c1	321	1100	950	1650	
CS(=O)(=O)Nc1cccc(-c2csc3cnc(NC4CC4)nc23)c1	2350				GI50 (HCT-116): 43200 nM; GI50 (MDA-MB-231): 43500 nM; GI50 [9]: 36600 nM
CCN1CCN(c2ccc(Nc3ncc4scc(-c5cccc(C(=O)O)c5)c4n3)cc2)CC1	59	4350	4640	12300	
CCN1CCN(c2ccc(Nc3ncc4scc(-c5cnc6ccccc6c5)c4n3)cc2)CC1	29	370	880	8050	remaining at 1 h, 1 µM [8]: 44.1%
CS(=O)(=O)Nc1cccc(-c2csc3cnc(N)nc23)c1	4030				GI50 (HCT-116): 33200 nM; GI50 (MDA-MB-231): 27800 nM; GI50 [9]: 43300 nM
CS(=O)(=O)Nc1cccc(-c2csc3cnc(NC4CCCCC4)nc23)c1	717				GI50 (HCT-116): 11300 nM; GI50 (MDA-MB-231): 7730 nM; GI50 [9]: 17800 nM
COc1cc(Nc2ncc3scc(-c4cccc(C(=O)O)c4)c3n2)cc(OC)c1OC	49				
CNC(=O)c1ccc(Nc2ncc(C(F)(F)F)c(NCc3nccnc3N(C)S(C)(=O)=O)n2)cc1 [DEFACTINIB]		9130	11400	5940	
CCN1CCN(c2ccc(Nc3ncc4scc(-c5ccccc5[N+](=O)[O-])c4n3)cc2)CC1	361	990	1010	1500	
CCc1nc(C(N)=O)c(Nc2ccc(N3CCC(N4CCN(C)CC4)CC3)c(OC)c2)nc1NC1CCOCC1 [GILTERITINIB]					GI50 (BaF3 [1]): 259 nM; GI50 (BaF3 [2]): 2 nM; GI50 (BaF3 [3]): 82.8 nM; GI50 (BaF3 [5]): 5 nM
COc1cc(Nc2ncc3scc(-c4cccc(S(C)(=O)=O)c4)c3n2)cc(OC)c1OC	91				
COc1cc(Nc2ncc3scc(-c4ccccc4S(C)(=O)=O)c3n2)cc(OC)c1OC	668				
